Reference: PubChem BioAssay (NCI)
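Assay format: 96-well plates, 48-hour exposure. GI50 is the concentration that inhibits growth by half. TGI marks complete inhibition of growth.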

Columns and labels:
Assay in all cases: DTP human tumour cell line panel, 48 h
RPMI-8226 leukemia = tested on: RPMI-8226 leukemia
MCF7 breast = tested on: MCF7 breast
SR leukemia = tested on: SR leukemia
OVCAR-4 ovarian = tested on: OVCAR-4 ovarian
U251 CNS = tested on: U251 CNS
CCRF-CEM leukemia = tested on: CCRF-CEM leukemia
M14 melanoma = tested on: M14 melanoma
OVCAR-3 ovarian = tested on: OVCAR-3 ovarian
A549 NSCLC = tested on: A549 NSCLC
SK-MEL-2 melanoma = tested on: SK-MEL-2 melanoma
T-47D breast = tested on: T-47D breast
SK-OV-3 ovarian = tested on: SK-OV-3 ovarian
UACC-62 melanoma = tested on: UACC-62 melanoma
SF-268 CNS = tested on: SF-268 CNS
NCI-H522 lung = tested on: NCI-H522 lung
PC-3 prostate = tested on: PC-3 prostate
HOP-62 NSCLC = tested on: HOP-62 NSCLC
HCC-2998 colon = tested on: HCC-2998 colon
786-0 renal = tested on: 786-0 renal
LOX IMVI melanoma = tested on: LOX IMVI melanoma
IGROV1 ovarian = tested on: IGROV1 ovarian
SK-MEL-5 melanoma = tested on: SK-MEL-5 melanoma
HOP-92 NSCLC = tested on: HOP-92 NSCLC
HT29 colon = tested on: HT29 colon
OVCAR-5 ovarian = tested on: OVCAR-5 ovarian
MOLT-4 leukemia = tested on: MOLT-4 leukemia
K-562 leukemia = tested on: K-562 leukemia
MDA-MB-435 = tested on: MDA-MB-435
SNB-19 CNS = tested on: SNB-19 CNS
SF-539 CNS = tested on: SF-539 CNS
SF-295 CNS = tested on: SF-295 CNS
OVCAR-8 ovarian = tested on: OVCAR-8 ovarian
HCT-15 colon = tested on: HCT-15 colon
NCI/ADR-RES ovarian = tested on: NCI/ADR-RES ovarian
ACHN renal = tested on: ACHN renal
UO-31 renal = tested on: UO-31 renal
SW-620 colon = tested on: SW-620 colon
HS 578T breast = tested on: HS 578T breast
CAKI-1 renal = tested on: CAKI-1 renal
COLO 205 colon = tested on: COLO 205 colon
HCT-116 colon = tested on: HCT-116 colon
MDA-MB-231 breast = tested on: MDA-MB-231 breast
DU-145 prostate = tested on: DU-145 prostate
HL-60(TB) leukemia = tested on: HL-60(TB) leukemia
UACC-257 melanoma = tested on: UACC-257 melanoma
BT-549 breast = tested on: BT-549 breast
SK-MEL-28 melanoma = tested on: SK-MEL-28 melanoma
SNB-75 CNS = tested on: SNB-75 CNS
SN12C renal = tested on: SN12C renal
MALME-3M melanoma = tested on: MALME-3M melanoma
NCI-H226 lung = tested on: NCI-H226 lung
NCI-H23 lung = tested on: NCI-H23 lung
NCI-H460 lung = tested on: NCI-H460 lung
KM12 colon = tested on: KM12 colon
A498 renal = tested on: A498 renal
RXF 393 renal = tested on: RXF 393 renal
TK-10 renal = tested on: TK-10 renal

CC(C)CNc1nc(N=[N+]=[N-])nc(NCC(C)C)n1
GI50 (RPMI-8226 leukemia): > 10 µM
TGI (RPMI-8226 leukemia): > 10 µM
GI50 (MCF7 breast): > 10 µM
TGI (MCF7 breast): > 10 µM
GI50 (SR leukemia): > 10 µM
TGI (SR leukemia): > 10 µM
GI50 (OVCAR-4 ovarian): > 10 µM
TGI (OVCAR-4 ovarian): > 10 µM
GI50 (U251 CNS): > 10 µM
TGI (U251 CNS): > 10 µM
GI50 (CCRF-CEM leukemia): > 10 µM
TGI (CCRF-CEM leukemia): > 10 µM
GI50 (M14 melanoma): > 10 µM
TGI (M14 melanoma): > 10 µM
GI50 (OVCAR-3 ovarian): > 10 µM
TGI (OVCAR-3 ovarian): > 10 µM
GI50 (A549 NSCLC): > 10 µM
TGI (A549 NSCLC): > 10 µM
GI50 (SK-MEL-2 melanoma): > 10 µM
TGI (SK-MEL-2 melanoma): > 10 µM
GI50 (T-47D breast): > 10 µM
TGI (T-47D breast): > 10 µM
GI50 (SK-OV-3 ovarian): > 10 µM
TGI (SK-OV-3 ovarian): > 10 µM
GI50 (UACC-62 melanoma): > 10 µM
TGI (UACC-62 melanoma): > 10 µM
GI50 (SF-268 CNS): > 10 µM
TGI (SF-268 CNS): > 10 µM
GI50 (NCI-H522 lung): > 10 µM
TGI (NCI-H522 lung): > 10 µM
GI50 (PC-3 prostate): > 10 µM
TGI (PC-3 prostate): > 10 µM
GI50 (HOP-62 NSCLC): > 10 µM
TGI (HOP-62 NSCLC): > 10 µM
GI50 (HCC-2998 colon): > 10 µM
TGI (HCC-2998 colon): > 10 µM
GI50 (786-0 renal): > 10 µM
TGI (786-0 renal): > 10 µM
GI50 (LOX IMVI melanoma): > 10 µM
TGI (LOX IMVI melanoma): > 10 µM
GI50 (IGROV1 ovarian): > 10 µM
TGI (IGROV1 ovarian): > 10 µM
GI50 (SK-MEL-5 melanoma): > 10 µM
TGI (SK-MEL-5 melanoma): > 10 µM
GI50 (HOP-92 NSCLC): 7.89 µM
TGI (HOP-92 NSCLC): > 10 µM
GI50 (HT29 colon): > 10 µM
TGI (HT29 colon): > 10 µM
GI50 (OVCAR-5 ovarian): > 10 µM
TGI (OVCAR-5 ovarian): > 10 µM
GI50 (MOLT-4 leukemia): > 10 µM
TGI (MOLT-4 leukemia): > 10 µM
GI50 (K-562 leukemia): > 10 µM
TGI (K-562 leukemia): > 10 µM
GI50 (MDA-MB-435): > 10 µM
TGI (MDA-MB-435): > 10 µM
GI50 (SNB-19 CNS): > 10 µM
TGI (SNB-19 CNS): > 10 µM
GI50 (SF-539 CNS): > 10 µM
TGI (SF-539 CNS): > 10 µM
GI50 (SF-295 CNS): > 10 µM
TGI (SF-295 CNS): > 10 µM
GI50 (OVCAR-8 ovarian): > 10 µM
TGI (OVCAR-8 ovarian): > 10 µM
GI50 (HCT-15 colon): > 10 µM
TGI (HCT-15 colon): > 10 µM
GI50 (NCI/ADR-RES ovarian): > 10 µM
TGI (NCI/ADR-RES ovarian): > 10 µM
GI50 (ACHN renal): > 10 µM
TGI (ACHN renal): > 10 µM
GI50 (UO-31 renal): > 10 µM
TGI (UO-31 renal): > 10 µM
GI50 (SW-620 colon): > 10 µM
TGI (SW-620 colon): > 10 µM
GI50 (HS 578T breast): > 10 µM
TGI (HS 578T breast): > 10 µM
GI50 (CAKI-1 renal): > 10 µM
TGI (CAKI-1 renal): > 10 µM
GI50 (COLO 205 colon): > 10 µM
TGI (COLO 205 colon): > 10 µM
GI50 (HCT-116 colon): > 10 µM
TGI (HCT-116 colon): > 10 µM
GI50 (MDA-MB-231 breast): > 10 µM
TGI (MDA-MB-231 breast): > 10 µM
GI50 (DU-145 prostate): > 10 µM
TGI (DU-145 prostate): > 10 µM
GI50 (HL-60(TB) leukemia): > 10 µM
TGI (HL-60(TB) leukemia): > 10 µM
GI50 (UACC-257 melanoma): > 10 µM
TGI (UACC-257 melanoma): > 10 µM
GI50 (BT-549 breast): > 10 µM
TGI (BT-549 breast): > 10 µM
GI50 (SK-MEL-28 melanoma): > 10 µM
TGI (SK-MEL-28 melanoma): > 10 µM
GI50 (SNB-75 CNS): > 10 µM
TGI (SNB-75 CNS): > 10 µM
GI50 (SN12C renal): > 10 µM
TGI (SN12C renal): > 10 µM
GI50 (MALME-3M melanoma): > 10 µM
TGI (MALME-3M melanoma): > 10 µM
GI50 (NCI-H226 lung): > 10 µM
TGI (NCI-H226 lung): > 10 µM
GI50 (NCI-H23 lung): > 10 µM
TGI (NCI-H23 lung): > 10 µM
GI50 (NCI-H460 lung): > 10 µM
TGI (NCI-H460 lung): > 10 µM
GI50 (KM12 colon): > 10 µM
TGI (KM12 colon): > 10 µM
GI50 (A498 renal): > 10 µM
TGI (A498 renal): > 10 µM
GI50 (RXF 393 renal): > 10 µM
TGI (RXF 393 renal): > 10 µM
GI50 (TK-10 renal): > 10 µM
TGI (TK-10 renal): > 10 µM
